Values of other authors in patent US11236258B2, “Aqueous based dust control compositions and methods” (Trican Well Service Ltd, priority 2018, dated 2022).

What was measured:
[1] = within 14 days

Structure (SMILES)	solubility in water [µg/mL]	measured solubility in water [µg/mL]	biodegradation, degradation [1] [%]
C[N+](C)(C)CCO [CHO, choline]	3610		
C[N+](C)(C)CCO.[Cl-] [Choline chloride, choline chloride]		650000	93
C[N+](C)(C)CCOP(=O)(O)OCC(O)CO (stereo not shown) [GPC, glycerophosphocholine]	4040		
